Here are results for five compounds from patent US20060009487A1, “Heterocyclic derivatives for treatment of hyperlipidemia and related diseases” (priority 2004, published 2006).

`O=C(O)c1cnc2ccccc2c1NCCCNc1ncccn1` [E6, n=2, R=H, 4-[3-(Pyrimidin-2-yl-amino)-propylamino]-quinoline-3-carboxylic acid]: the melting point was determined as 269 °C.

The compound `Nc1c(C(=O)O)cnc2ccccc12` [F3, 4-Amino-quinoline-3-carboxylic acid] gave a melting point of 305 °C.

Take `Cc1nc2ccccc2c(-c2ccccc2)c1CC(NC(=O)CCCC(=O)O)C(=O)NCCCCN` (centres unmarked) [D9, 4-[1-(4-Amino-butylcarbamoyl)-2-(2-methyl-4-phenyl-quinolin-3-yl)-ethylcarbamoyl]-butyric acid]: the melting point was 129 °C.

`N=C(N)NCCNc1c(C(=O)O)cnc2ccccc12` [E5, n=1, 4-(2-Guanidino-ethylamino)-quinoline-3-carboxylic acid]: the melting point was 267 °C.

Consider `CCOC(=O)c1cnc2ccccc2c1NCCCCCNc1ncccn1` [E6, n=4, R═CH2CH3, 4-[5-(Pyrimidin-2-ylamino)-pentylamino]-quinoline-3-carboxylic acid ethyl ester], for which the melting point was found to be 108 °C.

Broadly, the melting point is the temperature of the solid-liquid transition.
